Results as given in patent publication US9937220B2, “Anti-diabetic nutraceutical composition from palm leaf extract” (priority 2009, dated 2018).

Test system: STZ-induced diabetic rats
Assay: Body weight of STZ-induced diabetic rats
Assay type: in vivo, rat
Conditions: glibenclamide treated group (30 mg/kg)
Description: Adult normal and streptozotocin-induced diabetic male Sprague Dawley rats were randomly divided into groups. Palm leaf aqueous and alcoholic extracts (PLE) were fed to normal and STZ-induced diabetic rats at 50-200 mg/kg for 8 weeks. Blood sugar levels from fasting rats were monitored weekly. Untreated rats were used as negative control and glibenclamide (30 mg/kg) treated rats used as positive control.

COc1ccc(Cl)cc1C(=O)NCCc1ccc(S(=O)(=O)NC(=O)NC2CCCCC2)cc1 [glibenclamide]
changes in body weight: Significant changes in body weight
